Experimental data published in patent US8198317B2, “Methylenedioxy phenolic compounds and their use to treat disease” (The Ohio State University Research Foundation, priority 2008, dated 2012).

Experiments:
[1] = system: Human Umbilical Vein Endothelial Cells (HUVECs); assay: MTT cell toxicity assay; type: cell-based; settings: HUVEC, dose range of 10 nM to 100 μM
Protocol: Cell Culture: All experiments were performed with cultured Human Umbilical Vein Endothelial Cells (HUVECs—Gibco, Invitrogen) and grown to confluence at 37° C. in a 5% CO2 humidified incubator, on tissue culture flasks previously coated with 1% gelatin in supplemented culture medium (M199 with 10% heat inactivated fetal calf serum, 100 U/ml penicillin, 100 μg/ml streptomycin, 2 mM glutamine, 10 mM HEPES, pH 7.4, heparin 12 I.U./ml, 1% retinal derived growth factor, Sigma). Following trypsin treatment, the cells were detached from the flasks and final mono-layers were prepared by seeding HUVECs on gelatin-precoated culture plates and then incubated for 24-48 h to ensure confluence. Cells up to the fourth passage were used for all experiments. Recombinant human TNF-α was purchased from R&D Systems (Minneapolis, Minn.).
Cell Toxicity Assays: Cellular toxicity was assessed by MTT [3-(4,5-dimethylthiazol-2-yl)-2,5-diphenyltetrazolium bromide] assay, a commercially available assay for assessment of cellular viability. INV-75 was added to HUVECs for 24 hours, and toxicity assays were performed at the end of this period. The MTT assay relies on the cellular reduction of positively charged tetrazolium salts to their intensely colored formazan product by mitochondrial dehydrogenases. Formazan production is decreased in the presence of impaired mitochondrial redox function and enhanced free radical production and may, therefore, be used as an index of cell viability responses to experimental interventions.
In short, after removing microtiter plates from the incubator, fresh medium containing a fixed volume of reconstituted MTT [3-(4,5-dimethylthiazol-2-yl)-2,5-diphenyltetrazlium bromide; final concentration: 0.5 mg/ml] was added to the wells; the plates were kept at 37° C. in a 5% CO2 environment for 2 h, and then the MTT solubilization solution provided by the manufacturer was added. The formazan product formed by the conversion of positively charged tetrazolium salts to the reduced state has low aqueous solubility and is present as purple crystals. Dissolving the formazan with a solubilization buffer (provided in kit) permits the convenient quantification of its formation. Optical density at OD 570 nm is then measured for each well on an absorbance plate reader. The within- and between-assay variability was 3 and 5%, respectively. Various concentrations of INV-75 was tested in cell based assays using the MTT assay, as described above. The concentrations tested ranged from 1 mM to 10 nM and the cells were exposed for over 24 hours in duration (FIG. 2).

[2] = system: Humans; assay: Treatment of established atherosclerosis in humans (Example 21); type: in vivo, human; settings: oral, in excess of 12 months
From the text: Individuals with established atherosclerosis with evidence of plaque in the coronary arteries, carotid arteries or peripheral arteries are known to be at risk for future cardiovascular events such as heart attacks and strokes. These individuals are on treatments such as statins and anti-hypertensive agents such as ACE inhibitors, diuretics or calcium channel blockers. They also will receive an acceptable dose of a composition comprising a compound of the present invention in an acceptable carrier orally and chronically for durations in excess of 12 months. In one study, 3,4-methylenedioxy phenyl acetate (INV 73); 3,4-methylenedioxy-6-nitrophenol (INV 74); 3,4-methylenedioxy-6-nitrophenyl acetate (INV 75); 3,4-Methylenedioxy 6-nitro phenyl lipoate (INV-7465) or 3,4-Methylenedioxy phenyl lipoate (INV-7065) are administered to these individuals. A repeat IVUS measurement is made at the end of the treatment period to assess the effect of the infusion of the composition on coronary atherosclerosis in the target vessel.

[3] = system: Humans; assay: Treatment of atherosclerosis in humans, primary prevention (Example 22); type: in vivo, human; settings: oral, in excess of 12 months
From the text: Individuals with risk factors for atherosclerosis such as family history, hypertension and high cholesterol are known to be at risk for future cardiovascular events such as heart attacks and strokes. These individuals are on primary prevention treatments such as hypolipidemic drug therapy such as statins aspirin and anti-hypertensive agents such as ACE inhibitors, diuretics or calcium channel blockers. They also will receive an acceptable dose of a composition comprising a compound of the present invention in an acceptable carrier orally chronically for durations in excess of 12 months. In one study, 3,4-methylenedioxy phenyl acetate (INV 73); 3,4-methylenedioxy-6-nitrophenol (INV 74); 3,4-methylenedioxy-6-nitrophenyl acetate (INV 75); 3,4-Methylenedioxy 6-nitro phenyl lipoate (INV-7465) or 3,4-Methylenedioxy phenyl lipoate (INV-7065) are administered to these individuals. A repeat IVUS measurement is made at the end of the treatment period to assess the effect of the infusion of the composition on coronary atherosclerosis in the target vessel.

[4] = system: Humans; assay: Prevention or delay of onset of atherosclerosis in humans (Example 23); type: in vivo, human; settings: 2 mg/kg to 50 mg/kg iv or im, one to six months
Protocol: Individuals with documented risk factors for atherosclerosis and having high plasma cholesterol levels have a ultrasound analysis of the coronary (IVUS), carotid (IMT) or popliteal arteries to establish a baseline measurement. A portion of these individuals are […] administered a composition comprising a compound of the present invention in an acceptable carrier at a dose of 2 mg/kg to 50 mg/kg intravenously (iv) or intramuscular (im) I to 3 times per week over a period of approximately one to six months. The following compounds are administered to these individuals: 3,4-methylenedioxy phenyl acetate (INV 73); 3,4-methylenedioxy-6-nitrophenol (INV 74); 3,4-methylenedioxy-6-nitrophenyl acetate (INV 75); 3,4-Methylenedioxy 6-nitro phenyl lipoate (INV-7465) or 3,4-Methylenedioxy phenyl lipoate (INV-7065). The other individuals receive the carrier alone. A new ultrasound analysis at the end of the treatment period indicates higher levels of plaque in the vessels of individuals receiving the carrier.

[5] = system: Patients; assay: Treatment of patients with Type I and Type II diabetes (Example 24); type: in vivo, human; settings: diabetic patients, oral, 12 months
From the text: Individuals with Type I and Type II diabetes are at risk for future cardiovascular events such as heart attacks, strokes and kidney disease. These individuals are on prevention treatments such as hypolipidemic drug therapy such as statins and anti-hypertensive agents such as ACE inhibitors. They are already receiving glycemia lowering strategies such as Insulin, PPARγ agents, Metformin or sulfonylurea therapy. They also will receive an acceptable dose of a composition comprising a compound of the present invention in an acceptable carrier orally chronically for durations in excess of 12 months. In one study, 3,4-Methylenedioxy 6-nitro phenyl lipoate (INV-7465) or 3,4-Methylenedioxy phenyl lipoate (INV-7065) are administered to these individuals. The patients undergo the following measurements: HbA1C to assess glycemic control, urinary microalbuminura, blood pressure and lipid measurements. At the end of 12 months of treatment, there is lowering of HbA1C and urinary microalbuminuria. There is an improvement in VLDL cholesterol and a decrease in triglycerides with any of these treatments [(3,4-methylenedioxy phenyl acetate (INV 73); 3,4-methylenedioxy-6-nitrophenol (INV 74); 3,4-methylenedioxy-6-nitrophenyl acetate (INV 75); 3,4-Methylenedioxy 6-nitro phenyl lipoate (INV-7465) or 3,4-Methylenedioxy phenyl lipoate (INV-7065)].

[6] = system: Patients; assay: Treatment of dyslipidemia in diabetic patients (Example 25); type: in vivo, human; settings: oral, 12 months
From the text: Individuals with Type I and Type II diabetes are at risk for future cardiovascular events such as heart attacks, strokes and kidney disease. These individuals often have abnormalities in lipids such as elevations in triglycerides and VLDL cholesterol. They are on treatments such as hypolipidemic drug therapy such as statins and fibrates (Gemfibrozil or Fenofibrate) to lover cholesterol levels in conjunction with glycemia lowering strategies such as Insulin, PPAR γ agents, Metformin or sulfonylurea therapy. In addition to these treatments they will also receive an acceptable dose of a composition comprising a compound of the present invention in an acceptable carrier orally chronically for durations in excess of 12 months. In one study, (3,4-methylenedioxy phenyl acetate (INV 73); 3,4-methylenedioxy-6-nitrophenol (INV 74); 3,4-methylenedioxy-6-nitrophenyl acetate (INV 75); are administered to these individuals. The patients undergo lipid measurements at baseline and at the end of treatment for a 12 month duration. At the end of 12 months of treatment, there is lowering of VLDL cholesterol and a decrease in triglycerides.

Compound	cell toxicity results compared with those of INV-75 [1]	plaque in the atherosclerotic coronary artery (IVUS) [2]	plaque in the atherosclerotic coronary artery (IVUS) [3]	preventing or reducing atherosclerosis (ultrasound, versus carrier alone) [4]	VLDL cholesterol [5]	triglycerides [5]	VLDL cholesterol [6]	triglycerides [6]
CC(=O)Oc1ccc2c(c1)OCO2 [INV-73, 3,4-Methylenedioxyphenyl acetate]	identical	reduced	reduced	effective	improvement	decrease	lowering	decrease
O=[N+]([O-])c1cc2c(cc1O)OCO2 [INV-74, 3,4-Methylenedioxy-6-nitrophenol]	identical	reduced	reduced	effective	improvement	decrease	lowering	decrease
